Key:
[1] = test system: alternative cellular energy (ACE) pathway; experiment: neutral red dye / UV-A light activation of the ACE pathway in patients; type: in vivo, human
Text: A series of patients have been seen who have a history of recurrent herpes simplex virus (HSV) skin lesions, or a past history of herpes zoster virus (HZV) infections, but with no actual skin lesions present at the time of examination. Another series of patients were recruited from among the patients attending a chiropractic clinic for various pain or impaired mobility related conditions. Under the direction of the inventor, both groups of patients were asked to volunteer for a study on assessing and, if necessary, activating the ACE pathway. Q-tips were used to sample various areas of their skin as well as the mucosal (buccal) surface of their mouths. Urine samples were also collected. The materials were checked for direct fluorescence using a 15W ultraviolet-A light emitting spiral fluorescent light (Halco, ProLume light). The swabs were then touched against other Q-tips that were soaked in an approximately 1 mg/ml solution of neutral red. Several drops of the neutral red solution were added to the urine. The Q-tips and urine were again examined under UV-A light for discernable fluorescence compared to Q-tips exposed only to neutral red. […] Clinic staff similarly tested and gave negative results.
Skin areas of the patients from which fluorescing material were obtained were then wiped with absorbent cloth. These cloth was placed over areas of skin from which the material was collected, stained with neutral red, and exposed to UV-A light from spiral fluorescent bulbs. Under UV illumination, fluorescence developed in areas of skin beneath and adjacent to the stained cloth. The fluorescence lasted for varying periods of time extending in one patient to 3 hours, but generally less than 1 hour. […] Similarly, in most patients there was no discernable fluorescing material when the patients were seen the next day. […] A person commented upon the relief they experienced from a chronically painful shoulder that had resulted from injuries received years earlier in a car accident. Another patient's personality transformed from expressions of anger and hostility to one of laughter and smiles.

[2] = test system: active skin lesions caused by herpes simplex virus (HSV), herpes zoster virus (HZV) and human papillomavirus (HPV) infections; settings: cited from earlier work

For `Cc1cc2nc3ccc(N(C)C)cc3nc2cc1N.Cl` [neutral red], the sense of wellness ([1]; all patients, at the end of period of UV illumination) was “much improved sense of wellness”, the “severity of the pain and restricted mobility symptoms” value ([1]; chiropractic patients, following day) was “marked reductions” and the “persistence of benefits after a therapy session” value ([1]; no additional intervention) was 2-3 weeks. The vitality ([1]; patients with prior history of recurrent HSV infections, immediately after therapy session and next day) was “improved vitality” and the “healing of active skin lesions” value [2] was “successfully used in expediting the healing”.

Reference: patent US20090181467A1, “Method of assessing and of activating the alternative cellular energy (ACE) pathway in the therapy of diseases” (MI Hope Inc. dba Progressive University, priority 2008, published 2009)
